Literature values, collected in patent US11661525B2, “Inkjet ink and inkjet recording apparatus” (KYOCERA Document Solutions Inc., priority 2020, dated 2023).
Like-named read-outs stand apart in the source and are kept apart here.

[1] = literature values of the octanol/water partition coefficient of representative water-soluble organic solvents

For `CCCCCCC(O)CO` (centres unmarked) [1,2-Octanediol], the LogP [1] is given as 0.66.

In the case of `CC(CCO)CCO` [3-Methyl-1,5-pentanediol], the LogP [1] is given as 0.07 and the LogP (octanol/water partition coefficient of the water-soluble organic solvent used in the inks (Tables 6 and 8)) is given as 0.01.

For `CCOCCOCCO` [Diethylene glycol monoethyl ether], the LogP [1] is listed as −0.15.

For `OCCOCCOCCO` [Triethylene glycol], the LogP [1] is listed as −1.98.
